Results reported in paper PMC7255010, “Small-molecule activating SIRT6 elicits therapeutic effects and synergistically promotes anti-tumor activity of vitamin D3 in colorectal cancer” (Theranostics, 2020).
Read-outs that look alike come from different tables or passages of the source.

Experiments:
[1] = system: LS180; assay: Cell proliferation, CCK-8; format: cell-based; details: Homo sapiens; LS180, CCK8, 48 h
Description: (§1) Cell proliferation was evaluated using a Cell Counting Kit-8 (CCK-8) (Dojindo) following the manufacturer's instructions. Briefly, CRC cells were plated in 96-well plates at a density of 5 × 10^3 cells per well. […] Cells treated with DMSO were used as the […] controls, and the final DMSO concentration in the medium was 0.1%. After 48 h of treatment, 10 μL of CCK-8 solution was added to every well and incubated for 1 h at 37 °C. Then, a microplate reader (Synergy H4 Hybrid Reader, BioTek) was used to measure the absorbance of the solvent at 450 nm. The background of drug and culture medium has been deducted in each well. The relative cell proliferation of each treatment group was expressed as the percentage change relative to the […] control group. Each data point is the mean ± s.d. of two or three independent experiments.

[2] = system: LS123; assay: Cell proliferation, CCK-8; format: cell-based; details: Homo sapiens, LS-123; LS123, CCK8, 48 h
Description: as §1

[3] = system: SW480; assay: Cell proliferation, CCK-8; format: cell-based; details: Homo sapiens; SW480, CCK8, 48 h
Description: as §1

[4] = system: Colo205; assay: Cell proliferation, CCK-8; format: cell-based; details: Homo sapiens, COLO 205; Colo205, CCK8, 48 h
Description: as §1

[5] = system: HCT116; assay: Cell proliferation, CCK-8; format: cell-based; details: Homo sapiens, HCT-116
Description: as §1

[6] = system: SW620; assay: Cell proliferation, CCK-8; format: cell-based; details: Homo sapiens, SW-620; SW620, CCK8, 48 h
Description: as §1

[7] = system: SW1463; assay: Cell proliferation, CCK-8; format: cell-based; details: Homo sapiens; SW1463, CCK8, 48 h
Description: as §1

[8] = system: HCT8; assay: Cell proliferation, CCK-8; format: cell-based; details: Homo sapiens, HCT-8; HCT8, CCK8, 48 h
Description: as §1

[9] = system: SW48; assay: Cell proliferation, CCK-8; format: cell-based; details: Homo sapiens; SW48, CCK8, 48 h
Description: as §1

[10] = system: Colo320DM; assay: Cell proliferation, CCK-8; format: cell-based; details: Homo sapiens, COLO 320DM, CCK8, 48 h
Description: as §1

[11] = system: Caco2; assay: Cell proliferation, CCK-8; format: cell-based; details: Homo sapiens, Caco-2; Caco2, CCK8, 48 h
Description: as §1

[12] = system: DLD-1; assay: Cell proliferation, CCK-8; format: cell-based; details: Homo sapiens; DLD-1, CCK8, 48 h
Description: as §1

[13] = system: SW1417; assay: Cell proliferation, CCK-8; format: cell-based; details: Homo sapiens; SW1417, CCK8, 48 h
Description: as §1

[14] = system: SW1116; assay: Cell proliferation, CCK-8; format: cell-based; details: Homo sapiens, SW 1116; SW1116, CCK8, 48 h
Description: as §1

[15] = system: LOVO; assay: Cell proliferation, CCK-8; format: cell-based; details: Homo sapiens, CCK8, 48 h
Description: as §1

[16] = system: NCI-H716; assay: Cell proliferation, CCK-8; format: cell-based; details: Homo sapiens; NCI-H716, CCK8, 48 h
Description: as §1

[17] = system: NCI-H508; assay: Cell proliferation, CCK-8; format: cell-based; details: Homo sapiens; NCI-H508, CCK8, 48 h
Description: as §1

[18] = system: LS1034; assay: Cell proliferation, CCK-8; format: cell-based; details: Homo sapiens, LS-1034; LS1034, CCK8, 48 h
Description: as §1

[19] = system: Colo201; assay: Cell proliferation, CCK-8; format: cell-based; details: Homo sapiens, COLO 201; Colo201, CCK8, 48 h
Description: as §1

[20] = system: HCT15; assay: Cell proliferation, CCK-8; format: cell-based; details: Homo sapiens, HCT-15; HCT15, CCK8, 48 h
Description: as §1

[21] = system: LS174T; assay: Cell proliferation, CCK-8; format: cell-based; details: Homo sapiens, CCK8, 48 h
Description: as §1

[22] = system: T84; assay: Cell proliferation, CCK-8; format: cell-based; details: Homo sapiens; T84, CCK8, 48 h
Description: as §1

[23] = system: HT29; assay: Cell proliferation, CCK-8; format: cell-based; details: Homo sapiens, HT-29; HT29, CCK8, 48 h
Description: as §1

[24] = system: SKCO1; assay: Cell proliferation, CCK-8; format: cell-based; details: Homo sapiens, SK-CO-1; SKCO1, CCK8, 48 h
Description: as §1

[25] = system: RKO; assay: Cell proliferation, CCK-8; format: cell-based; details: Homo sapiens, CCK8, 48 h
Description: as §1

[26] = system: LS513; assay: Cell proliferation, CCK-8; format: cell-based; details: Homo sapiens, LS-513; LS513, CCK8, 48 h
Description: as §1

[27] = target: SIRT6 (Homo sapiens, UniProt Q8N6T7); assay: FDL assay of SIRT6 deacylase activity (EALPKK-Myr-AMC); format: biochemical; design: WT (wild-type) full-length human SIRT6 was inserted into the pET28a-LIC vector; made in house; host or cells: Escherichia coli BL21 (DE3); details: myristoyl peptide EALPKK-Myr-AMC
Description: According to previously described methods, WT (wild-type) full-length human SIRT6 was inserted into the pET28a-LIC vector (Addgene plasmid #26094). The plasmid was transformed into Escherichia coli BL21 (DE3) cells. Protein was purified using a nickel column and gel filtration. Purified protein was dialyzed into assay buffer (50 mM Tris-HCl [pH 8.0], 137 mM NaCl, 2.7 mM KCl, and 1 mM MgCl2) and used in all in vitro assays performed in this study.
[…], 5 μM WT SIRT6 was incubated in a 50-μL reaction mixture (2.5 mM NAD^+, […], compounds/DMSO, and assay buffer) at 37 °C for 2 h, quenched with 40 mM nicotinamide, and developed with 6 mg/mL trypsin for another 30 min at 25 °C. […] Fluorescence intensity was measured using a microplate reader (Synergy H4 Hybrid Reader, BioTek) at excitation and emission wavelengths of 360 nm and 460 nm, respectively. EC50 values were calculated by fitting the data points with the dose-response function in GraphPad Prism V7 (GraphPad Software). Each experiment was independently repeated three times in technical triplicates.

Sequence of SIRT6 (Q8N6T7 whole entry): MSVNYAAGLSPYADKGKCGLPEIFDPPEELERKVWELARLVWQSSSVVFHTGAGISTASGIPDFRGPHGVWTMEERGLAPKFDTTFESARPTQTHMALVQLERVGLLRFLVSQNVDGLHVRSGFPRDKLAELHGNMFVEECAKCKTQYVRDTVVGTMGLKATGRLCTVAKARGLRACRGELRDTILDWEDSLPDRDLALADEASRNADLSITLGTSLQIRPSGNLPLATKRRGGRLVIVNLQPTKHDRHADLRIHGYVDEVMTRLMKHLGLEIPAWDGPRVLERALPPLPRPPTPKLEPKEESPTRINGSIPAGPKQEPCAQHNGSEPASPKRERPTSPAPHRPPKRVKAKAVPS

Compound: Cc1cc(F)c(Br)cc1NS(=O)(=O)c1ccc(NS(=O)(=O)c2cc(Cl)cc(Cl)c2)cc1CN1CCOC[C@H]1C [MDL-811]
- IC50 [1]: 19.1 ± 0.4 µM
- IC50 [2]: 19.8 ± 0.5 µM
- IC50 [3]: 9.3 ± 1.7 µM
- IC50 [4]: 38.1 ± 4.4 µM
- IC50 ([5]; HCT116, CCK8, 48 h, read-out: IC50 ± s.d.): 4.7 ± 0.2 µM
- IC50 ([5]; HCT116, CCK-8, 48 h, Figure S6, mean ± s.e.m. of three experiments, read-out: IC50): 4.8 ± 0.2 µM
- IC50 [6]: 16.7 ± 1.4 µM
- IC50 [7]: 13 ± 1.5 µM
- IC50 [8]: 20.1 ± 2 µM
- IC50 [9]: 10.8 ± 1.5 µM
- IC50 [10]: 33.2 ± 0.9 µM
- IC50 [11]: 28.7 ± 1.7 µM
- IC50 [12]: 18 ± 0.1 µM
- IC50 [13]: 15.1 ± 1.9 µM
- IC50 [14]: 5.7 ± 0.3 µM
- IC50 [15]: 7.8 ± 0.2 µM
- IC50 [16]: 61 ± 2.3 µM
- IC50 [17]: 9.7 ± 1.2 µM
- IC50 [18]: 31.9 ± 0.7 µM
- IC50 [19]: 20.3 ± 1.4 µM
- IC50 [20]: 20.5 ± 1.3 µM
- IC50 [21]: 23.8 ± 2 µM
- IC50 [22]: 13 ± 1.4 µM
- IC50 [23]: 7 ± 1.1 µM
- IC50 [24]: 12.1 ± 0.1 µM
- IC50 [25]: 12.3 ± 1.8 µM
- IC50 [26]: 28.6 ± 0.6 µM
- effect on SIRT6 deacylation [27]: no apparent effect
